Measured values taken from patent publication US10308916B2, “Omega-transaminase mutants with activity improvements toward ketones and methods for producing optically pure amines” (Industry-Academic Cooperation Foundation, Yonsei University, priority 2015, dated 2019).
Where “and” joins values, the source holds several entries; their conditions need not be identical. Equal entries are not always repeated. Where two headings read alike, the source gives them in different places.

What was measured:
Format in all cases: biochemical
OATA L57C/W58L/I261A [1] = test system: OATA L57C/W58L/I261A
OATA W58L [2] = test system: OATA W58L
OATA L57Q/W58N/I261L [3] = test system: OATA L57Q/W58N/I261L
OATA W58D/I261A [4] = test system: OATA W58D/I261A
OATA W58A [5] = test system: OATA W58A
OATA W58L [6] = test system: OATA W58L; remark: listed apart in the source
OATA W58A [7] = test system: OATA W58A; remark: listed apart in the source
OATA L57A/W58A/V154A [8] = test system: OATA L57A/W58A/V154A
OATA L57A/W58A [9] = test system: OATA L57A/W58A
OATA W58I = conditions: pH 7
[10] = test system: OATA W58A, OATA W58M, OATA W58V and OATA W58I mutants
OATA L57A/W58A/V154A [11] = test system: OATA L57A/W58A/V154A; remark: listed apart in the source
OATA L57C/W58L/I261A [12] = test system: OATA L57C/W58L/I261A; remark: listed apart in the source
OATA W58V = conditions: pH 7
OATA W58L [13] = test system: OATA W58L; remark: listed apart in the source
OATA L57Q/W58N/I261L [14] = test system: OATA L57Q/W58N/I261L; remark: listed apart in the source
OATA W58L [15] = conditions: pH 7
OATA L57A = test system: OATA L57A
W58A mutant = test system: W58A mutant
OATA W58A [16] = test system: OATA W58A; remark: listed apart in the source
OATA W58A [17] = conditions: pH 7
OATA W58D/I261A [18] = test system: OATA W58D/I261A; remark: listed apart in the source
OATA W58M = conditions: pH 7
OATA L57A/W58A [19] = test system: OATA L57A/W58A; remark: listed apart in the source
OATA W58L [20] = test system: OATA W58L; remark: listed apart in the source

Row | SMILES | Relative activity, OATA L57C/W58L/I261A (OATA L57C/W58L/I261A [1]) | Relative reactivity, OATA W58L (OATA W58L [2]) | Relative activity, OATA L57Q/W58N/I261L (OATA L57Q/W58N/I261L [3]) | Relative reactivity, OATA W58A (OATA W58A [5]) | Relative activity, OATA L57A/W58A/V154A (OATA L57A/W58A/V154A [8]) | Relative activity, OATA L57A/W58A (OATA L57A/W58A [9]) | Relative activity to acetophenone, OATA W58I (OATA W58I) | Relative activity to acetophenone, OATA W58V (OATA W58V) | Fold-increase in kcat/KM (OATA W58L [13]) | fold decrease in KM (tighter binding) (OATA W58L [13]) | Relative activity to acetophenone, OATA W58L (OATA W58L [15]) | Relative activity, OATA L57A (OATA L57A) | Relative activity to acetophenone, OATA W58A (OATA W58A [17]) | Relative activity to acetophenone, OATA W58M (OATA W58M) | further results
1 | NCc1ccccc1 [Benzylamine] | 792% | 49% | 123% | 50% |  |  |  |  |  |  |  |  |  |  | Relative activity, OATA W58D/I261A (OATA W58D/I261A [4]): 17%
2 | O=C1CCc2ccccc21 [Ketone 1g] |  |  |  |  |  |  |  |  |  |  |  |  |  |  | Fold-increase (OATA W58L [6]): >760
3 | CC(C)C(N)c1ccccc1 (racemic) [2-Methyl-1-phenylpropan-1-amine] |  | 2% |  | 3% | 167% | 12% |  |  |  |  |  |  |  |  | relative activity to (S)-α-MBA measured with OATA WT, OATA W58A (OATA W58A [7]): 6%
4 | CC(=O)c1ccccc1 [Ketone 1a, acetophenone] |  |  |  |  |  |  | 100% | 100% | 340 | 6.1 | 100% | 89% | 100% | 100% | fold increase in reactivity as compared to OATA WT [10]: more than 40; Relative activity, OATA L57A/W58A/V154A (OATA L57A/W58A/V154A [11]): 637%; Relative activity, OATA L57C/W58L/I261A (OATA L57C/W58L/I261A [12]): 12,174%; fold increase in turnover number (kcat) (OATA W58L [13]): 55.7; kcat relative to kcat of the wild-type enzyme for pyruvate (OATA W58L [13]): up to 20%; Relative activity, OATA L57Q/W58N/I261L (OATA L57Q/W58N/I261L [14]): 2,500%; fold increase in activity (W58A mutant): 41; Relative activity, OATA W58A (OATA W58A [16]): 1,206%^; Relative activity, OATA W58D/I261A (OATA W58D/I261A [18]): 648%; Relative activity, OATA L57A/W58A (OATA L57A/W58A [19]): 716%
5 | CCCC(=O)c1ccccc1 [Ketone 1c, butyrophenone] |  |  |  |  |  |  | 11% | 12% |  |  | >0.1%^ | 1% | 8% | 15% | Relative activity, OATA L57A/W58A/V154A (OATA L57A/W58A/V154A [11]): 747%; Relative activity, OATA W58A (OATA W58A [16]): 8%; Relative activity, OATA L57A/W58A (OATA L57A/W58A [19]): 302%; fold increase in amination activity compared to OATA W58A (OATA L57A/W58A [19]): > 30 and 38
6 | O=C1CCCc2ccccc21 [Ketone 1h] |  |  |  |  |  |  |  |  |  |  |  |  |  |  | Fold-increase (OATA W58L [6]): >210
7 | CC(=O)CCc1ccccc1 [Ketone 1f, benzylacetone] |  |  |  |  |  |  | 125% | 193% |  |  | 277% | 439% | 219% | 178% | Relative activity, OATA L57C/W58L/I261A (OATA L57C/W58L/I261A [12]): 6,330%; Conversion (%) OATAW58L (OATA W58L [20]): 93%; Conversion, preparative scale (OATA W58L [20]): 92%
8 | CCC[C@H](N)c1ccccc1 [(S)-α-propylbenzylamine] |  | 2% |  | 10% | 749% | 240% |  |  |  |  |  |  |  |  | relative activity to (S)-α-MBA measured with OATA WT, OATA W58A (OATA W58A [7]): 20%
9 | CC(C)N [Isopropylamine] | 8% | 72% | 23% | 28% |  |  |  |  | 8.6 | 8.9 |  |  |  |  | 
10 | C[C@H](N)c1ccccc1 [(S)-α-methylbenzylamine] | 900% | 100% | 262% | 100% | 1,190%^ | 621% |  |  | 170 | 207 |  |  |  |  | Relative activity, OATA W58D/I261A (OATA W58D/I261A [4]): 17%
